From US8119624B2, “Fused phenyl amido heterocyclic compounds” (Pfizer Inc., priority 2006, dated 2012)

Target: T1, Full-length glucokinase (beta cell isoform) (Homo sapiens, UniProt P35557)
T1 construct: Full-length glucokinase (beta cell isoform) was His-tagged at N-terminus; His tag (N); made in house
T1 sequence (P35557 1-465): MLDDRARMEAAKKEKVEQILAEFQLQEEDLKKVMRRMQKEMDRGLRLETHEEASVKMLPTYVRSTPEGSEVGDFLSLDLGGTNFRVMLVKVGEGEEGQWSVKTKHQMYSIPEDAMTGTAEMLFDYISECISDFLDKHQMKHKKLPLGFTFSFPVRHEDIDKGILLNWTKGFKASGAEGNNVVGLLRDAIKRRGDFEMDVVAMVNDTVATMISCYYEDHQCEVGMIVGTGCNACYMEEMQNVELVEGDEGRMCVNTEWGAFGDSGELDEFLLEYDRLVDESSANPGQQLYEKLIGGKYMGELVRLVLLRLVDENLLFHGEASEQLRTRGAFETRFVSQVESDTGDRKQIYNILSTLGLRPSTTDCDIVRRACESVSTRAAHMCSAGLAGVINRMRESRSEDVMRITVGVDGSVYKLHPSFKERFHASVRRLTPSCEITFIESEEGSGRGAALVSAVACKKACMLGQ
Experiment: Glucokinase biochemical assay (PK/LDH-coupled, NADH depletion at 340 nm): % activation, EC50, % max activation
Details: 5 mM glucose; for activation at 10 µM: 10 uM compound, % Activation=(Va/Vo−1)×100, read-out: % Activation at 10 uM; for EC50: GK activation, read-out: EC50; for Emax: fitted maximum activation, read-out: % Max Activation
In short: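 Activation expressed as (Va/Vo−1)×100, where initial rates with and without compound come from NADH depletion at 340 nm over 200–900 s. Enzyme is His-tagged human beta-cell GK, full length, run at room temperature in HEPES buffer with 1 mM ATP and 5 mM glucose. DMSO 1%.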

activation at 10 µM	EC50	Emax	Compound
146%	564 nM	149%	Cn1ccc(NC(=O)c2cc(Oc3ccc(C(=O)N4CC(F)(F)C4)cc3)c3c(c2)OC(C)(C)C3)n1 [Example 50, 4-[4-(3,3-Difluoro-azetidine-1-carbonyl)-phenoxy]-2,2-dimethyl-2,3-dihydro-benzofuran-6-carboxylic acid(1-methyl-1H-pyrazol-3-yl)-amide]
129%	250 nM	130%	Cn1ccc(NC(=O)c2cc(Oc3ccc(C(=O)N4CCOCC4)c(F)c3)c3c(c2)OC(C)(C)C3)n1 [Example 51, 4-[3-Fluoro-4-(morpholine-4-carbonyl)-phenoxy]-2,2-dimethyl-2,3-dihydro-benzofuran-6-carboxylic acid(1-methyl-1H-pyrazol-3-yl)-amide]
136%	280 nM	151%	Cn1ccc(NC(=O)c2cc(Oc3ccc(C(=O)N4CC(F)(F)C4)c(F)c3)c3c(c2)OC(C)(C)C3)n1 [Example 52, 4-[4-(3,3-Difluoro-azetidine-1-carbonyl)-3-fluoro-phenoxy]-2,2-dimethyl-2,3-dihydro-benzofuran-6-carboxylic acid(1-methyl-1H-pyrazol-3-yl)-amide]
125%	650 nM	135%	CN1CCN(C(=O)c2ccc(Oc3cc(C(=O)Nc4ccn(C)n4)cc4c3CC(C)(C)O4)cc2F)CC1 [Example 53, 4-[3-Fluoro-4-(4-methyl-piperazine-1-carbonyl)-phenoxy]-2,2-dimethyl-2,3-dihydro-benzofuran-6-carboxylic acid(1-methyl-1H-pyrazol-3-yl)-amide]
83.3%	80.7 nM	101%	CN(C)C(=O)c1ccc(Oc2cc(C(=O)Nc3ccn(C)n3)cc3c2CC(C)(C)O3)cc1F [Example 54, 4-(4-Dimethylcarbamoyl-3-fluoro-phenoxy)-2,2-dimethyl-2,3-dihydro-benzofuran-6-carboxylic acid(1-methyl-1H-pyrazol-3-yl)-amide]
143%	680 nM	129%	Cn1ccc(NC(=O)c2cc(Oc3ccc(C(=O)N4CC(O)C4)c(F)c3)c3c(c2)OC(C)(C)C3)n1 [Example 55, 4-[3-Fluoro-4-(3-hydroxy-azetidine-1-carbonyl)-phenoxy]-2,2-dimethyl-2,3-dihydro-benzofuran-6-carboxylic acid(1-methyl-1H-pyrazol-3-yl)-amide]
107%	50.7 nM	108%	Cn1ccc(NC(=O)c2cc(Oc3ccc(C(=O)N4CCCC4)c(F)c3)c3c(c2)OC(C)(C)C3)n1 [Example 56, 4-[3-Fluoro-4-(pyrrolidine-1-carbonyl)-phenoxy]-2,2-dimethyl-2,3-dihydro-benzofuran-6-carboxylic acid(1-methyl-1H-pyrazol-3-yl)-amide]
131%	643 nM	148%	CN(C)C1CN(C(=O)c2ccc(Oc3cc(C(=O)Nc4ccn(C)n4)cc4c3CC(C)(C)O4)cc2F)C1 [Example 57, 4-[4-(3-Dimethylamino-azetidine-1-carbonyl)-3-fluoro-phenoxy]-2,2-dimethyl-2,3-dihydro-benzofuran-6-carboxylic acid(1-methyl-1H-pyrazol-3-yl)-amide]
55.3%	75 nM	88%	Cn1ccc(NC(=O)c2cc(Oc3ccc(C(=O)N4CC[C@@H](F)C4)c(F)c3)c3c(c2)OC(C)(C)C3)n1 [Example 58, 4-[3-Fluoro-4-((R)-3-fluoro-pyrrolidine-1-carbonyl)-phenoxy]-2,2-dimethyl-2,3-dihydro-benzofuran-6-carboxylic acid(1-methyl-1H-pyrazol-3-yl)-amide]
172%	250 nM	168%	CO[C@@H]1CCN(C(=O)c2ccc(Oc3cc(C(=O)Nc4ccn(C)n4)cc4c3CC(C)(C)O4)cc2F)C1 [Example 59, 4-[3-Fluoro-4-((R)-3-methoxy-pyrrolidine-1-carbonyl)-phenoxy]-2,2-dimethyl-2,3-dihydro-benzofuran-6-carboxylic acid(1-methyl-1H-pyrazol-3-yl)-amide]
172%	270 nM	167%	CO[C@H]1CCN(C(=O)c2ccc(Oc3cc(C(=O)Nc4ccn(C)n4)cc4c3CC(C)(C)O4)cc2F)C1 [Example 60, 4-[3-Fluoro-4-((S)-3-methoxy-pyrrolidine-1-carbonyl)-phenoxy]-2,2-dimethyl-2,3-dihydro-benzofuran-6-carboxylic acid(1-methyl-1H-pyrazol-3-yl)-amide]
109%	100 nM	107%	Cn1ccc(NC(=O)c2cc(Oc3ccc(C(=O)N4CCCCC4)c(F)c3)c3c(c2)OC(C)(C)C3)n1 [Example 61, 4-[3-Fluoro-4-(piperidine-1-carbonyl)-phenoxy]-2,2-dimethyl-2,3-dihydro-benzofuran-6-carboxylic acid(1-methyl-1H-pyrazol-3-yl)-amide]
153%	700 nM	165%	Cn1ccc(NC(=O)c2cc(Oc3ccc(C(=O)N4CC[C@H](O)C4)c(F)c3)c3c(c2)OC(C)(C)C3)n1 [Example 62, 4-[3-Fluoro-4-((S)-3-hydroxy-pyrrolidine-1-carbonyl)-phenoxy]-2,2-dimethyl-2,3-dihydro-benzofuran-6-carboxylic acid(1-methyl-1H-pyrazol-3-yl)-amide]
170%	230 nM	158%	Cn1ccc(NC(=O)c2cc(Oc3ccc(C(=O)N4CC[C@H](F)C4)c(F)c3)c3c(c2)OC(C)(C)C3)n1 [Example 63, 4-[3-Fluoro-4-((S)-3-fluoro-pyrrolidine-1-carbonyl)-phenoxy]-2,2-dimethyl-2,3-dihydro-benzofuran-6-carboxylic acid(1-methyl-1H-pyrazol-3-yl)-amide]
172%	270 nM	158%	COCCN(C)C(=O)c1ccc(Oc2cc(C(=O)Nc3ccn(C)n3)cc3c2CC(C)(C)O3)cc1F [Example 64, 4-{3-Fluoro-4-[(2-methoxy-ethyl)-methyl-carbamoyl]-phenoxy}-2,2-dimethyl-2,3-dihydro-benzofuran-6-carboxylic acid(1-methyl-1H-pyrazol-3-yl)-amide]
147%	240 nM	141%	Cn1ccc(NC(=O)c2cc(Oc3ccc(C(=O)Nc4ccn(C)n4)c(F)c3)c3c(c2)OC(C)(C)C3)n1 [Example 65, 4-[3-Fluoro-4-(1-methyl-1H-pyrazol-3-ylcarbamoyl)-phenoxy]-2,2-dimethyl-2,3-dihydro-benzofuran-6-carboxylic acid(1-methyl-1H-pyrazol-3-yl)-amide]
149%	410 nM	168%	CN(CCO)C(=O)c1ccc(Oc2cc(C(=O)Nc3ccn(C)n3)cc3c2CC(C)(C)O3)cc1F [Example 66, 4-{3-Fluoro-4-[(2-hydroxy-ethyl)-methyl-carbamoyl]-phenoxy}-2,2-dimethyl-2,3-dihydro-benzofuran-6-carboxylic acid(1-methyl-1H-pyrazol-3-yl)-amide]
131%	66 nM	130%	CN(CC#N)C(=O)c1ccc(Oc2cc(C(=O)Nc3ccn(C)n3)cc3c2CC(C)(C)O3)cc1F [Example 67, 4-[4-(Cyanomethyl-methyl-carbamoyl)-3-fluoro-phenoxy]-2,2-dimethyl-2,3-dihydro-benzofuran-6-carboxylic acid(1-methyl-1H-pyrazol-3-yl)-amide]
146%	660 nM	175%	COCCNC(=O)c1ccc(Oc2cc(C(=O)Nc3ccn(C)n3)cc3c2CC(C)(C)O3)cc1F [Example 68, 4-[3-Fluoro-4-(2-methoxy-ethylcarbamoyl)-phenoxy]-2,2-dimethyl-2,3-dihydro-benzofuran-6-carboxylic acid(1-methyl-1H-pyrazol-3-yl)-amide]
122%	370 nM	129%	CNC(=O)c1ccc(Oc2cc(C(=O)Nc3ccn(C)n3)cc3c2CC(C)(C)O3)cc1F [Example 69, 4-(3-Fluoro-4-methylcarbamoyl-phenoxy)-2,2-dimethyl-2,3-dihydro-benzofuran-6-carboxylic acid(1-methyl-1H-pyrazol-3-yl)-amide]
132%	150 nM	118%	CCNC(=O)c1ccc(Oc2cc(C(=O)Nc3ccn(C)n3)cc3c2CC(C)(C)O3)cc1F [Example 70, 4-(4-Ethylcarbamoyl-3-fluoro-phenoxy)-2,2-dimethyl-2,3-dihydro-benzofuran-6-carboxylic acid(1-methyl-1H-pyrazol-3-yl)-amide]
181%	410 nM	167%	CC(C)NC(=O)c1ccc(Oc2cc(C(=O)Nc3ccn(C)n3)cc3c2CC(C)(C)O3)cc1F [Example 71, 4-(3-Fluoro-4-isopropylcarbamoyl-phenoxy)-2,2-dimethyl-2,3-dihydro-benzofuran-6-carboxylic acid(1-methyl-1H-pyrazol-3-yl)-amide]
